Source: patent US6737383B1, “Herbicidal oxadiazolidines” (priority 1999, dated 2004)

Columns and labels:
blackgrass = experiment: Test B pre/postemergence blackgrass; assay type: in vivo, Alopecurus myosuroides
In short: (§1)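 Herbicidal effect was estimated by eye on a ten-point control scale after plants spent twelve to sixteen days in a greenhouse following soil or foliar treatment. Foliar sprays targeted plants at one to four leaves; all doses were formulated in a non-phytotoxic solvent with surfactant.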

surinam grass = experiment: Test B pre/postemergence surinam grass; assay type: in vivo, Brachiaria decumbens
In short: as §1

sugar beet = experiment: Test B pre/postemergence sugar beet; assay type: in vivo, Beta vulgaris
In short: as §1

cocklebur = experiment: Test B pre/postemergence cocklebur; assay type: in vivo, Xanthium strumarium
In short: as §1

pigweed = experiment: Test B pre/postemergence pigweed; assay type: in vivo, Amaranthus retroflexus
In short: as §1

soybean = experiment: Test B pre/postemergence soybean; assay type: in vivo, Glycine max
In short: as §1

purple nutsedge = experiment: Test B pre/postemergence purple nutsedge; assay type: in vivo, Cyperus rotundus
In short: as §1

crabgrass = experiment: Test B pre/postemergence crabgrass; assay type: in vivo, Digitaria sanguinalis
In short: as §1

wild oat = experiment: Test B pre/postemergence wild oat; assay type: in vivo, Avena fatua
In short: as §1

rape = experiment: Test B pre/postemergence rape; assay type: in vivo, Brassica napus
In short: as §1

velvetleaf = experiment: Test B pre/postemergence velvetleaf; assay type: in vivo, Abutilon theophrasti
In short: as §1

morningglory = experiment: Test B pre/postemergence morningglory; assay type: in vivo, Ipomoea hederacea
In short: as §1

bedstraw = experiment: Test B pre/postemergence bedstraw; assay type: in vivo, Galium aparine
In short: as §1

corn = experiment: Test B pre/postemergence corn; assay type: in vivo, Zea mays
In short: as §1

wheat = experiment: Test B pre/postemergence wheat; assay type: in vivo, Triticum aestivum
In short: as §1

giant foxtail = experiment: Test B pre/postemergence giant foxtail; assay type: in vivo, Setaria faberii
In short: as §1

[1] = Postemergence, Rate 62 g/ha, scale 0 to 10, 0 is no effect, 10 is complete control
[2] = Postemergence, Rate 125 g/ha, scale of 0 to 10 where 0 is no effect and 10 is complete control
[3] = Preemergence, Rate 125 g/ha, scale of 0 to 10 where 0 is no effect and 10 is complete control
[4] = Preemergence, Rate 250 g/ha, scale 0 (no effect) to 10 (complete control)
[5] = Rate 62 g/ha, Preemergence, scale 0 to 10
[6] = Rate 250 g/ha, Postemergence, scale 0 to 10, 0 is no effect, 10 is complete control
[7] = Rate 500 g/ha, Postemergence, scale 0 to 10, 0 is no effect, 10 is complete control
[8] = Rate 500 g/ha, Preemergence, scale 0 to 10 (0 no effect, 10 complete control)

C#CC(CC)n1c(=O)on(C(=O)N(c2ccc(F)cc2)C(C)C)c1=O (stereo not shown) [Compound 753]
Plant response rating, Blackgrass (blackgrass; [1]): 0 | Blackgrass plant response rating (blackgrass; [2]): 2 | Plant response rating, Blackgrass (blackgrass; [3]): 9 | Blackgrass plant response rating (blackgrass; [4]): 9 | Blackgrass plant response rating (blackgrass; [5]): 5 | Blackgrass plant response rating (blackgrass; [6]): 4 | Blackgrass plant response rating (blackgrass; [7]): 4 | Blackgrass plant response rating (blackgrass; [8]): 9 | Plant response rating, B. signalgrass (surinam grass; [1]): 0 | B. signalgrass plant response rating (surinam grass; [2]): 0 | B. signalgrass plant response rating (surinam grass; Preemergence, Rate 62 g/ha, scale of 0 to 10 where 0 is no effect and 10 is complete control): 2 | Plant response rating, B. signalgrass (surinam grass; [3]): 7 | B. signalgrass plant response rating (surinam grass; [4]): 9 | B. signalgrass plant response rating (surinam grass; [6]): 2 | B. signalgrass plant response rating (surinam grass; [7]): 7 | B. signalgrass plant response rating (surinam grass; [8]): 9 | Plant response rating, Sugarbeets (sugar beet; [1]): 0 | Plant response rating, Sugarbeets (sugar beet; [3]): 0 | Sugarbeets plant response rating (sugar beet; [4]): 1 | Sugarbeets plant response rating (sugar beet; [5]): 0 | Sugarbeets plant response rating (sugar beet; [6]): 5 | Sugarbeets plant response rating (sugar beet; [7]): 5 | Sugarbeets plant response rating (sugar beet; [8]): 8 | Plant response rating, Cocklebur (cocklebur; [1]): 0 | Cocklebur plant response rating (cocklebur; [2]): 0 | Plant response rating, Cocklebur (cocklebur; [3]): 0 | Cocklebur plant response rating (cocklebur; [4]): 0 | Cocklebur plant response rating (cocklebur; [5]): 0 | Cocklebur plant response rating (cocklebur; [6]): 0 | Cocklebur plant response rating (cocklebur; [7]): 4 | Cocklebur plant response rating (cocklebur; [8]): 2 | Plant response rating, Redroot pigweed (pigweed; [1]): 4 | Redroot pigweed plant response rating (pigweed; [2]): 5 | Plant response rating, Redroot pigweed (pigweed; [3]): 8 | Redroot pigweed plant response rating (pigweed; [4]): 9 | Redroot pigweed plant response rating (pigweed; [5]): 6 | Redroot pigweed plant response rating (pigweed; [6]): 6 | Redroot pigweed plant response rating (pigweed; [7]): 7 | Redroot pigweed plant response rating (pigweed; [8]): 10 | Plant response rating, Soybean (soybean; [1]): 1 | Plant response rating, Soybean (soybean; [3]): 0 | Soybean plant response rating (soybean; [4]): 0 | Soybean plant response rating (soybean; [5]): 0 | Soybean plant response rating (soybean; [6]): 4 | Soybean plant response rating (soybean; [7]): 4 | Soybean plant response rating (soybean; [8]): 0 | Plant response rating, Nutsedge (purple nutsedge; [1]): 0 | Nutsedge plant response rating (purple nutsedge; [2]): 0 | Plant response rating, Nutsedge (purple nutsedge; [3]): 0 | Nutsedge plant response rating (purple nutsedge; [4]): 0 | Nutsedge plant response rating (purple nutsedge; [5]): 0 | Nutsedge plant response rating (purple nutsedge; [6]): 2 | Nutsedge plant response rating (purple nutsedge; [7]): 3 | Nutsedge plant response rating (purple nutsedge; [8]): 0 | Plant response rating, Crabgrass (crabgrass; [1]): 0 | Crabgrass plant response rating (crabgrass; [2]): 4 | Plant response rating, Crabgrass (crabgrass; [3]): 9 | Crabgrass plant response rating (crabgrass; [4]): 9 | Crabgrass plant response rating (crabgrass; [5]): 9 | Crabgrass plant response rating (crabgrass; [6]): 6 | Crabgrass plant response rating (crabgrass; [7]): 9 | Crabgrass plant response rating (crabgrass; [8]): 9 | Plant response rating, Wild oats (wild oat; [1]): 0 | Plant response rating, Wild oats (wild oat; [3]): 4 | Wild oats plant response rating (wild oat; [4]): 8 | Wild oats plant response rating (wild oat; [5]): 0 | Wild oats plant response rating (wild oat; [6]): 0 | Wild oats plant response rating (wild oat; [7]): 2 | Wild oats plant response rating (wild oat; [8]): 9 | Plant response rating, Rape (rape; [1]): 0 | Rape plant response rating (rape; [2]): 0 | Plant response rating, Rape (rape; [3]): 5 | Rape plant response rating (rape; [4]): 7 | Rape plant response rating (rape; [5]): 2 | Rape plant response rating (rape; [6]): 0 | Rape plant response rating (rape; [7]): 0 | Rape plant response rating (rape; [8]): 7 | Plant response rating, Velvetleaf (velvetleaf; [1]): 0 | Plant response rating, Velvetleaf (velvetleaf; [3]): 0 | Velvetleaf plant response rating (velvetleaf; [5]): 0 | Velvetleaf plant response rating (velvetleaf; [6]): 2 | Velvetleaf plant response rating (velvetleaf; [7]): 2 | Velvetleaf plant response rating (velvetleaf; [8]): 2 | Morningglory plant response rating (morningglory; [2]): 2 | Plant response rating, Morningglory (morningglory; [3]): 0 | Morningglory plant response rating (morningglory; [4]): 0 | Morningglory plant response rating (morningglory; [5]): 0 | Morningglory plant response rating (morningglory; [6]): 9 | Morningglory plant response rating (morningglory; [7]): 10 | Morningglory plant response rating (morningglory; [8]): 0 | Plant response rating, Bedstraw (bedstraw; [3]): 0 | Bedstraw plant response rating (bedstraw; [4]): 3 | Bedstraw plant response rating (bedstraw; [5]): 0 | Bedstraw plant response rating (bedstraw; [7]): 6 | Bedstraw plant response rating (bedstraw; [8]): 3 | Plant response rating, Corn (corn; [1]): 0 | Corn plant response rating (corn; [2]): 0 | Plant response rating, Corn (corn; [3]): 0 | Corn plant response rating (corn; [4]): 0 | Corn plant response rating (corn; [5]): 0 | Corn plant response rating (corn; [6]): 0 | Corn plant response rating (corn; [7]): 1 | Corn plant response rating (corn; [8]): 0 | Plant response rating, Wheat (wheat; [1]): 0 | Plant response rating, Wheat (wheat; [3]): 0 | Wheat plant response rating (wheat; [4]): 3 | Wheat plant response rating (wheat; [5]): 0 | Wheat plant response rating (wheat; [6]): 0 | Wheat plant response rating (wheat; [7]): 5 | Wheat plant response rating (wheat; [8]): 3 | Plant response rating, Giant foxtail (giant foxtail; [1]): 3 | Giant foxtail plant response rating (giant foxtail; [2]): 8 | Plant response rating, Giant foxtail (giant foxtail; [3]): 9 | Giant foxtail plant response rating (giant foxtail; [4]): 9 | Giant foxtail plant response rating (giant foxtail; [5]): 9 | Giant foxtail plant response rating (giant foxtail; [6]): 8 | Giant foxtail plant response rating (giant foxtail; [7]): 9 | Giant foxtail plant response rating (giant foxtail; [8]): 9
